Values joined by “and” are separate entries in the source; they are usually repeats but may differ in a detail not shown here. Identical values can stand only once. “Also recorded” adds a separate entry of the source.
Target: T1, Human recombinant HDAC6 (Homo sapiens, UniProt Q9UBN7)
T1 sequence (Q9UBN7 1-1215): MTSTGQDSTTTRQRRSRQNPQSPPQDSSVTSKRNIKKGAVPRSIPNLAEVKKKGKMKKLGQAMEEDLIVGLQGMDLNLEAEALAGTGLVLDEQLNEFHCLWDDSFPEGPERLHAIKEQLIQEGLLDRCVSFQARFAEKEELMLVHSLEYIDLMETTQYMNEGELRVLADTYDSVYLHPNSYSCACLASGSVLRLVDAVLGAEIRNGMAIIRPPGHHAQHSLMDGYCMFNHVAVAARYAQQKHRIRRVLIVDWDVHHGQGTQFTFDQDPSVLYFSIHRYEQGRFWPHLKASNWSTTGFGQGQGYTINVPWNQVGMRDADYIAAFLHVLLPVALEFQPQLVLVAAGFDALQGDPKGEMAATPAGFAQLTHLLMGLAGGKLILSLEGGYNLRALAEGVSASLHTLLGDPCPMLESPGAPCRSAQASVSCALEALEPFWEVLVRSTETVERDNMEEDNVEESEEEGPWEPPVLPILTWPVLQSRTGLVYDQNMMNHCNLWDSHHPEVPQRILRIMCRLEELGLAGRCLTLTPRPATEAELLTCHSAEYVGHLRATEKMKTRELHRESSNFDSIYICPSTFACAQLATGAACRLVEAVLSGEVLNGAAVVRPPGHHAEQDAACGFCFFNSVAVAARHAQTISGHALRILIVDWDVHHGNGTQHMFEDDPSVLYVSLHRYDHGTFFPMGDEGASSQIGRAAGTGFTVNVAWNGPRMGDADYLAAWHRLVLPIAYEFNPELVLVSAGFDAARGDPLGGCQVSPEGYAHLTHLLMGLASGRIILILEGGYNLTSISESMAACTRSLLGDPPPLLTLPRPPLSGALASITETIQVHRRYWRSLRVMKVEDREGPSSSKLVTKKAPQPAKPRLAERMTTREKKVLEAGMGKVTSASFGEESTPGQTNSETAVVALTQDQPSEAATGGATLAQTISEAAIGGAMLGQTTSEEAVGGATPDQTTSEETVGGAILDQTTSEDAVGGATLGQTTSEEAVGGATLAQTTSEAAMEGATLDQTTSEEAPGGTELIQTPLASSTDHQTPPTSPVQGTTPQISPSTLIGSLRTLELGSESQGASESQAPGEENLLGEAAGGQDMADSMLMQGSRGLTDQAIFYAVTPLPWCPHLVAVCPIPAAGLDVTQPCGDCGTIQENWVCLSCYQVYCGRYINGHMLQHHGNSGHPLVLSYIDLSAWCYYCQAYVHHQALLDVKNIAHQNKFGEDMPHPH
Test: HDAC isomer assay, Fluor-de-Lys, HDAC6
Format: biochemical
Details: for EC50: Example 4, FIGS. 5, 6 and 8, read-out: EC50 against HDAC6; for greater potency for HDAC6 as compared to HDAC1: FIG. 14; for selectivity for HDAC6 as compared to pan-HDACs (and HDAC1, HDAC3), in words: FIGS. 1, 7, 8, 18
Protocol: The HDAC isomer (HDAC1, 3, and 6) assays were performed as follows:
Materials: Human recombinant HDAC isomer (HDAC1, HDAC3, and HDAC6); Fluor-de-Lys HDAC substrates; 360 nm excitation 460 nm emission Plate Reader; Disposable pipettes; Pipet-aid; Pipette tips; Micro-pipetter; DMSO; Sterile micro-tubes and conical tubes; and Micro-centrifuge.
Test compounds and control preparation: All test compounds' stock solutions were made in 100% DMSO. Test compound dilutions were made in HDAC Assay buffer with a final concentration of DMSO less than or equal to 1%. Vehicle control was HDAC Assay buffer with 1% DMSO.
The reagents for the assay were prepared as follows:
1. All kit components were defrosted and these, and all dilutions described below, were kept on ice until use.
2. A sufficient amount of HDAC source diluted in Assay Buffer (BML-KI143) was prepared to provide for the assays that were performed (# of wells×15 μl). A 30-fold dilution of the HeLa Extract means that 15p L contains 0.5 μl of the undiluted Extract, an appropriate amount to use per well.
3. Dilution(s) of SAHA and/or Test Inhibitors were prepared in Assay Buffer (BML-KI143). Since 10 μl were used per well, and since the final volume of the HDAC reaction was 50p, these inhibitor dilutions were 5× their final concentration.
4. Dilution(s) of the Fluor de Lys® Substrate (BML-KI104; 50 mM) were prepared in Assay Buffer (BML-KI143) that were 2× the desired final concentration(s). For inhibitor screening, substrate concentrations at or below the Km are recommended. Twenty-five μL were used per well. […] Rapid mixing and dilution into room temperature buffer helped to prevent precipitation at high substrate concentration.
5. Shortly before use (<30 min.), sufficient Fluor de Lys® Developer was prepared for the assays to be performed (50 μl per well). First, the Fluor de Lys® Developer Concentrate was diluted 20-fold (e.g. 50 μl plus 950 μl Assay Buffer) in cold Assay Buffer (BML-K1143). […] The addition of SAHA to the Developer insures that HDAC activity stops when the Developer is added. The Developer was kept on ice until use.
1. Assay buffer, diluted trichostatin A or test inhibitor was added to appropriate wells of the microtiter plate.
2. Diluted HeLa extract or other HDAC sample was added to all wells except those that are to be “No Enzyme Controls.”
3. Diluted Fluor de Lys® Substrate and the samples in the microtiter plate were allowed to equilibrate to assay temperature (e.g. 25 or 37° C.).
4. HDAC reactions were initiated by adding diluted substrate (25 μl) to each well and mixing thoroughly.
5. HDAC reactions were allowed to proceed for desired length of time and then stop them by addition of Fluor de Lys® Developer (50 μl). The plates were incubated at room temperature (25° C.) for 10-15 min.
6. Samples were read in a microtiter-plate reading fluorimeter capable of excitation at a wavelength in the range 350-380 nm and detection of emitted light in the range 440-460 nm.

| EC50 | greater potency for HDAC6 as compared to HDAC1 | more selective for HDAC6 as compared to HDAC1 (Example 6, FIG. 18) | more selective for HDAC6 as compared to HDAC3 (Example 6, FIG. 18) | IC50 (Example 6, FIG. 18, 2 mg/mL formulation in 5% DMSO/40% PEG 400/55% PBS, read-out: IC50 against HDAC6 protein) | selectivity for HDAC6 as compared to pan-HDACs (and HDAC1, HDAC3), in words (listed as N^1-(2-(2,6-dioxopiperidin-3-yl)-1-oxoisoindolin-4-yl)-N^8-hydroxyoctanediamide) | Structure (SMILES) | selectivity for HDAC6 as compared to pan-HDACs (and HDAC1, HDAC3), in words |
| --- | --- | --- | --- | --- | --- | --- | --- |
| 52 nM and 68 nM | 83 fold | – | – | – | – | O=C(CCCCCCC(=O)NC1CCC(=O)NC1=O)NO (stereo not shown) [SP-2-59, N^1-(2,6-dioxopiperidin-3-yl)-N^8-hydroxyoctanediamide] | substantial preference and selectivity for HDAC6 |
| 6.2 nM | 258 fold | about 26 times | about 51 times | 60 nM | surprising selective for HDAC6 | O=C(CCCCCCC(=O)Nc1cccc2c1CN(C1CCC(=O)NC1=O)C2=O)NO (stereo not shown) [SP-2-93, N^1-(2-(2,6-dioxopiperidin-3-yl)-1-oxoisoindolin-4-yl)-N^8-hydroxyoctanediamide] | substantial preference and selectivity for HDAC6; also recorded: highly selective for HDAC 6 |

— US11584733B2, “Selective histone deacetylase inhibitors for the treatment of human disease” (Shuttle Pharmaceuticals, Inc., priority 2017, dated 2023)
